Experimental data as given in PubChem BioAssay (NCI).
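Step 1: Grow cells in 96-well plates. Step 2: Expose to compound for 48 hours at 5 concentrations. Step 3: Interpolate endpoints linearly; if unreached, use highest concentration. The concentration for 50% growth inhibition is given as GI50. Definition used: TGI = concentration required for complete inhibition of growth.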 Calls of active or inactive are those of the source. Cut-off read from the data, not from the text of the source: active = GI50 below about 0.43 µM; inactive = the rest.

Legend:
Test in all cases: NCI tumour cell line growth inhibition, 48 h
MDA-N = tested on: MDA-N
DMS 273 small cell lung = tested on: DMS 273 small cell lung
SNB-78 CNS = tested on: SNB-78 CNS
KM20L2 colon = tested on: KM20L2 colon
HOP-18 NSCLC = tested on: HOP-18 NSCLC
M19-MEL melanoma = tested on: M19-MEL melanoma
LXFL 529 NSCLC = tested on: LXFL 529 NSCLC
XF 498 CNS = tested on: XF 498 CNS
RXF-631 renal = tested on: RXF-631 renal
SN12K1 renal = tested on: SN12K1 renal
P388/ADR leukemia = tested on: P388/ADR leukemia

| SMILES | TGI (MDA-N) | TGI (DMS 273 small cell lung) | TGI (SNB-78 CNS) | TGI (KM20L2 colon) [µM] | TGI (HOP-18 NSCLC) [µM] | TGI (M19-MEL melanoma) | TGI (LXFL 529 NSCLC) [µM] | TGI (XF 498 CNS) [µM] | TGI (RXF-631 renal) [µM] | other results |
| --- | --- | --- | --- | --- | --- | --- | --- | --- | --- | --- |
| O=C(/C=C/c1ccccc1)OCC1=C[C@@H](O)[C@@H]2C=CO[C@@H](OC3OC(CO)C(O)C(O)C3O)[C@H]12 (some centres not stated) | > 100 µM |  |  |  |  |  |  |  |  |  |
| COC(=O)NC(=O)c1cn(C2CCCCC2)c(=O)[nH]c1=O |  | > 100 µM | > 100 µM | > 100 | > 100 | > 100 µM | > 100 |  |  |  |
| O=c1c2cc(O)c(O)cc2oc2cc(O)c(C3OC(CO)C(O)C(O)C3O)c(O)c12 (configuration not stated) | > 100 µM |  |  |  |  |  |  |  |  |  |
| COc1cccc(/C=C\c2ccnc3ccccc23)c1 | > 10 µM |  |  |  |  |  |  |  |  |  |
| COc1cc(/C=C/c2ccccn2)cc(OC)c1OC | > 10 µM |  |  |  |  |  |  |  |  |  |
| CC1(C)CC(N2CCN(C3CC(C)(C)NC(C)(C)C3)CC2)CC(C)(C)N1 |  | > 100 µM | > 100 µM | > 100 | > 100 |  | > 100 | > 100 | > 100 |  |
| COC(CC1(OC)OC(=O)C=C1N)OC (configuration not stated) |  | > 100 µM | > 100 µM |  | > 100 | > 100 µM | > 100 |  |  |  |
| COC(=O)C1=C(\O)C[C@@]2(C)CC[C@@H](C(=O)OC)C2C/C=C\1C(=O)OC (some centres not stated) |  | > 100 µM | > 100 µM | > 100 | > 100 | > 100 µM | > 100 |  | > 100 |  |
| N#CC1C(=O)NC(=O)C1=O (configuration not stated) |  | > 100 µM | > 100 µM | > 100 | > 100 | > 100 µM | > 100 | > 100 | > 100 |  |
| CCCCCCCCCCCC(=O)OC(COC(N)=O)COc1ccc(Cl)cc1 (configuration not stated) |  | 40.9 µM | 84.8 µM | > 100 | 95.7 | 32.9 µM | 45.2 | 45.8 | 67.7 |  |
| CCc1ccc([O-])c(C=NCCCN(C)CCCN=Cc2cc(C)ccc2[O-])c1.[Co+3].[N-]=[N+]=[N-] | 50 µg/mL | > 150 µg/mL | > 150 µg/mL |  |  | > 150 µg/mL |  |  |  | GI50 (DMS 273 small cell lung): 34.7 µg/mL; GI50 (SNB-78 CNS): > 150 µg/mL; GI50 (SN12K1 renal): 21.7 µg/mL; TGI (SN12K1 renal): 54.8 µg/mL; GI50 (P388/ADR leukemia): 82.9 µg/mL; TGI (P388/ADR leukemia): > 150 µg/mL; outcome (KM20L2 colon): inactive; outcome (HOP-18 NSCLC): inactive; GI50 (M19-MEL melanoma): > 150 µg/mL; GI50 (MDA-N): 50 µg/mL; outcome (XF 498 CNS): inactive |
| NC(=O)c1cc([N+](=O)[O-])cc([N+](=O)[O-])c1 |  | > 100 µM |  | > 100 |  | 46.8 µM | > 100 |  | > 100 |  |
| c1cc2c(c(NC3=NCCN3)c1)CCCC2 | > 100 µM |  |  |  |  |  |  |  |  |  |
| O=C(/C=C/c1ccc(O)cc1)c1cc(Cl)ccc1O |  |  | > 100 µM | > 100 | > 100 | > 100 µM | > 100 | 85 |  |  |
| ClCCCCOC1CCCCO1 (configuration not stated) |  | > 100 µM | > 100 µM | > 100 | > 100 | > 100 µM | > 100 | > 100 |  |  |
| O=C1c2ccccc2C(=O)c2c1ccc1c2N=C(c2ccc(Br)cc2)CC(c2cccc3ccccc23)N1 (configuration not stated) |  | > 100 µM | > 100 µM | > 100 | > 100 |  | > 100 | > 100 | > 100 |  |
| CC[C@@]1(O)C(=O)NCc2c1cc1n(c2=O)Cc2cc3c(NC(C)=O)cccc3nc2-1 | > 100 µM |  |  |  |  |  |  |  |  | GI50 (MDA-N): > 100 µM |
| CCCCC(C(=O)CCC(=O)Nc1ccc(Cl)cc1)C(=O)C(C)C (configuration not stated) |  | > 100 µM | > 100 µM | > 100 |  | > 100 µM | > 100 | > 100 | > 100 |  |
| O=C1C(Br)=CC2(C=C1Br)CCNc1c(O)c3c4c(c12)=NCCC=4C=N3 | 0.245 µM | 0.427 µM | 0.656 µM | 0.413 | 3.4 | 0.0656 µM |  | 0.399 |  | TGI (SN12K1 renal): 0.426 µM; TGI (P388/ADR leukemia): 0.0155 µM |
| Cc1c(O)c(Br)c(C)c(O)c1Br (tested in a mixture with another compound) | 3.26 µM |  |  |  |  |  |  |  |  |  |
| CN1CCc2cc3c4cc2C1Cc1ccc(cc1)Oc1cc(ccc1O)CC1c2c(cc(O)c(c2O4)O3)CCN1C (configuration not stated) |  | 3.84 µM | 21.3 µM | 10.3 | 18.5 | 3.35 µM | 6.26 |  | 7.92 |  |
| C=C1C(=O)C2(C)OC2(C)C1C(=O)O (configuration not stated) | > 100 µM |  |  |  |  |  |  |  |  |  |
| CC1CC(c2ccc(Cl)c(Cl)c2)=Nc2ccccc2S1 (configuration not stated) |  | > 100 µM | > 100 µM | > 100 | > 100 | > 100 µM | > 100 | > 100 |  |  |
| CCCCCCSc1nc(COC(=O)NC)c(COC(=O)NC)n1C | > 100 µM |  |  |  |  |  |  |  |  |  |
| NCC1(N2CCOCC2)C2CCCC21CNc1ccccc1 (configuration not stated) |  | > 100 µM | > 100 µM |  | > 100 | > 100 µM | > 100 | > 100 | > 100 |  |
| CC12CC(=O)C3C(CCC4=CC(=O)CCC43C)C1CC=C2CC(=O)O (configuration not stated) | > 100 µM |  |  |  |  |  |  |  |  |  |
| O=C1CC[C@@H](NC(=O)Cc2ccccc2)C(=O)N1 |  | > 100 µM |  | > 100 | > 100 | > 100 µM | > 100 | > 100 |  |  |
| Cc1ccc(NC(=O)C(=O)CC(=O)c2ccccc2)cc1C |  | > 100 µM | > 100 µM | > 100 | > 100 | > 100 µM | > 100 | > 100 |  |  |
| c1ccc2c(c1)N=C(c1ccc3ccccc3c1)CC(c1cccc3ccccc13)S2 (configuration not stated) |  | > 100 µM |  | > 100 | > 100 | > 100 µM | > 100 | > 100 | > 100 |  |
| Nc1ccc(C(=O)Nc2ccccc2N)cc1 | > 100 µM | > 100 µM | > 100 µM |  | > 100 | > 100 µM | > 100 | > 100 | > 100 |  |
